According to a melting point compilation (Tetko et al.; mined from patent text by program, amines drawn as free bases though some values may be those of a salt):

| SMILES | melting point [°C] |
| --- | --- |
| CC(C)N(C(C)C)S(=O)(=O)N[C@@H](Cc1ccc(NC(=O)c2c(Cl)cncc2Cl)cc1)C(=O)O | 151 |
| CC(=O)NCC1(N2CCN(C)CC2)CCCCC1 | 110 to 111 |
| C[C@H](NC(=O)c1nc(CCCc2ccccc2)c[nH]1)C(=O)NC(C=O)CC(=O)O (stereo not given in full) | 94 to 96 |
| CC(=O)OCC(=O)C1=CCC2C3CCC4=CC(=O)C=CC4(C)C3(F)C(OC(C)=O)CC12C (stereo not given) | 294 to 296 |
| CCCCC12CCC3c4ccc(OC)cc4CCC3C1CCC2O (stereo not given) | 123 to 125 |
| COC1C=C(C)C2(OC(=O)c3ccc([N+](=O)[O-])cc3)CC(C)(C)C1O2 (stereo not given) | 95 to 95.5 |
| Nc1nc2ccccc2n1-c1cccc(-c2cccs2)c1 | 142 to 144 |
| COc1cc2c(c([N+](=O)[O-])c1)NCCC2=O | 161 to 162 |
| CCN(CC)CC1CCCCN1CCNC(=O)N1c2ccc(C)cc2C(=O)Nc2cccnc21 (stereo not given) | 148 to 150 |
| CN=C1SCN(C(C)(C)C)C(=O)N1C | 51 to 52 |
| Nc1nc2c(ncn2CCC(CO)CCl)c(=O)[nH]1 (stereo not given) | 273 to 275 |
| CCCCc1nc2c(N)nc3cccnc3c2n1CCNC(=O)C1CCC(=O)O1 (stereo not given) | 153 to 154 |
| COc1ccc(N(C(=O)CN2C(=O)C(CO)C(=O)N(c3ccccc3)c3ccccc32)C(C)C)cc1 (stereo not given) | 136 to 139 |
| Cc1c(S(=O)(=O)c2ccc(Cl)cc2)cc(C(C)C)c(O)c1C(=O)O | 165 to 166 |
| CN(Cc1ccc(Cl)cc1)c1ccc(S(=O)CCCCCC(=O)O)cc1 (stereo not given) | 109 to 111 |
| CN(C)CCCNC(=O)c1ccccc1NS(=O)(=O)c1cccc(C(F)(F)F)c1 | 116 to 123 |
| OCC1OC(SCC=Cc2ccccc2)C(O)C(O)C1O (stereo not given) | 145 to 146 |
| NCCC(Nc1ccccc1)c1ccccc1 (stereo not given) | 104 to 105 |
| CC(=O)Nc1cccc(-n2nc(C(C)C)c(=O)n(Cc3ccc(Cl)cc3)c2=O)c1 | 178 |
| N=C(N)NCCc1ccc(NC(=O)CC(c2ccccc2)(c2ccccc2)c2ccccc2)cc1 | 213 to 215 |
| Cc1ccccc1-c1ccc2c(c1)c(C(=O)C(=O)O)cn2Cc1ccc(C(C)(C)C)cc1 | 97 to 98 |

| SMILES | melting point [°C] |
| --- | --- |
| O=C(O)C1(CS(=O)(=O)c2ccc(Oc3ccccc3)cc2)CCOCC1 | 162 to 165 |
| COc1ccc(C2N3CCSC3=NC2(O)c2ccc(F)cc2)cc1 (stereo not given) | 150 to 151 |
| CCCCCCCCCCCCSc1cc(SCCCCCCCCCCCC)c([N+](=O)[O-])c(C(=O)O)c1 | 74 to 77 |
| CCCC(=O)c1ccc(C(=O)O)cn1 | 128 to 130 |
| N#CC1CN1C(=O)NC(=O)C=Cc1ccccc1 (stereo not given) | 134 to 136 |
| Cc1ccc(S(=O)(=O)c2cn(S(=O)(=O)c3ccccc3)c3ccccc23)cc1 | 189 to 190 |
| CCOC(=O)c1cnc2c(c(C)nn2C)c1N(C)S(=O)(=O)c1ccc(Oc2ccncc2)cc1 | 117 to 119 |
| OCC(Oc1ccc(-c2ccccc2)cc1)c1ccccc1 (stereo not given) | 126 to 127 |
| COc1ccc(-c2nc(-c3ccc(F)cc3)sc2-c2ccc(OC)cc2)cc1 | 140 to 142 |
| O=C(O)c1cn(C2CC2)c2c(F)c(N3CCNCC3)c(F)cc2c1=O | > 270 |
| CCOc1nc2cccc(C(=O)OCOC(=O)C(C)(C)C)c2n1Cc1ccc(-c2ccccc2-c2nnn[nH]2)cc1 | 104 to 106 |
| COc1cn(-c2ccc(N3CC4(CC4)OC3=O)cc2F)nc(-c2ccnn2-c2ccccc2)c1=O | 200 to 201 |
| CCCCCCCCCCCCCCCCNC(=O)Nc1sc(C(=O)O)c(C)c1C(=O)OC(C)(C)C | 188 to 189 |
| CCCOc1cc2c(cc1OCCC)CCC(C(=O)N1CCN(C(=O)c3cc(OC)c(OC)c(OC)c3)CC1)=C2 | 124 to 126 |
| Cc1noc(NC(=O)N2CCN(c3nccc(-c4cc(F)ccc4F)n3)CC2)c1C | 218 to 219 |
| O=C(O)CCc1ccccc1C(=O)NCCc1ccccc1 | 106 to 108 |
| CC(C)Oc1ccc(NC(=O)C2(C)CC2)cc1C(F)(F)F | 106 to 109 |
| CN(C(=O)CN(C(=O)CNC(=O)Nc1cccc(/C=N/O)c1)c1ccccc1)c1ccccc1 | 219 |
| Cc1c(C(=O)O)ccc2c1OC(c1ccccc1)(c1ccccc1)O2 | 263 to 265 |
| Cc1cccc(C)c1NC(=O)Cn1ccnc1 | 160 to 162 |
| c1ccc(C2=Nc3cccnc3Nc3ccccc32)cc1 | 106 to 108 |

| SMILES | melting point [°C] |
| --- | --- |
| CCN(CC)CCc1c[nH]c2ccc(N(CC)S(=O)(=O)c3ccc4ccccc4c3)cc12 | 49 to 50 |
| CCc1nc2c(N)nc3ccccc3c2n1Cc1cc(-c2ccc(F)cc2)no1 | 232 to 233 |
| CCOC(=O)C1CN(C(=O)C2=Cc3cc(OC)c(OC)cc3CCC2)CCN1 (stereo not given) | 105 to 106 |
| CC(=O)Nc1ccc(CNC(=O)c2ccccc2)cc1 | 175 to 177 |
| Clc1ccc(-n2c(Cl)nc3ccccc32)c(Cl)c1 | 80 to 83 |
| Cc1cc(C)c2c(c1C)OCC2c1ccccc1 (stereo not given) | 72 to 73 |
| CC(C)=CCC/C(C)=C/CSc1nc2cc(F)c(Cl)cc2[nH]1 | 122 to 124 |
| CC(=O)C1(Nc2ccccc2)CCN(C(C)C)CC1 | 107 |
| C[C@H]1CCCC(C)(C)[C@@H]1[C@H](O)c1ccc(F)c(C#N)c1 | 118 to 119 |
| Cc1[nH]c(Cl)c(C#N)c1SC#N | 171 |
| CS(=O)(=O)c1ccc(-n2nc(C(F)(F)F)cc2-c2ccc(-c3cscn3)c(F)c2)cc1F | 156 to 158 |
| C=CC(CC(O)C(CC1CCCCC1)NC(=O)C(Cc1c[nH]cn1)NC(=O)C(Cc1ccccc1)NC(=O)OC(C)(C)C)C(C)C (stereo not given) | 161 |
| O=C1C(Cl)=C(Nc2ccc(S(=O)(=O)Nc3ccccc3)cc2)C(=O)c2ccccc21 | 220 to 223 |
| N#CC1=C(C2CCCC2)Nc2n[nH]cc2C1c1cccc2nonc12 (stereo not given) | 193 |
| CCCCCCCCCCOc1c(Br)sc(-c2nc3ccccc3s2)c1OCCCCCCCCCC | 42 to 43 |
| CCC1CCCCN1C(=O)c1cc2ccccc2c(-c2ccccc2)n1 (stereo not given) | 86 |
| CC(=O)Nc1ccc(NC2CCN3CCc4ccccc4C3C2)cc1 (stereo not given) | 210 to 213 |
| Ic1cnc(-c2cccs2)s1 | 117 to 119 |
| COC(=O)c1ccc2c(c1)N(C1CC1)C=NS2(=O)=O | 191 to 194 |
| COc1c(Cl)cc(C(=O)O)c2c1OCCO2 | 172 |
| CC1(COc2ccc(N3CCN(c4ccc(C(F)(F)F)cc4)CC3)cc2)Cn2cc([N+](=O)[O-])nc2O1 (stereo not given) | 231 to 233 |

Further lines, results first:

| melting point [°C] | SMILES |
| --- | --- |
| > 300 | CS(=O)(=O)Nc1cc(O)c2c(c1)C(=O)c1cccc(O)c1C2=O |
| 139 to 140 | Cc1ncsc1C(C)(O)c1cc2ccccc2o1 (stereo not given) |
| 184 to 186 | Nc1ccnc2c(F)cccc12 |
| 200 to 201 | COC(=O)c1c[nH]cc1-c1cccc(Cl)c1Cl |
| 127 to 129 | Cn1ccnc1Sc1ccc(Cl)cc1N |
| 77 to 78 | CCOc1ccc(C2=NNCCC2)cc1OCC |
| 144 | CC1(c2ccccc2)OC(C(=O)O)Oc2ccc(Cl)cc21 (stereo not given) |
| 195 to 196 | NC(=O)C=Cc1cc2c(Oc3ccc(Br)cc3)cncc2s1 |
| 210 to 211 | CC(C)(C)c1ccc2oc(C(=O)COc3ccc(C(=O)O)cc3)cc2c1 |
| 85 to 87 | Cc1ccc(S(=O)(=O)OCC(O)Cc2cc(Cl)c3ccccc3c2OCc2ccccc2)cc1 (stereo not given) |
| 192 to 193 | CCOC(=O)N1CCC(=C2c3ccc(Cl)cc3OCc3cc([N+](=O)[O-])cnc32)CC1 |
| 45 to 47 | CN(C)C1CCN(c2nc(N3CCOCC3)c3ncnc(N(CCC#N)Cc4ccccc4)c3n2)CC1 |
| 118 to 120 | COc1cccc2c1-c1c(OC(C)C)cccc1C2=O |
| 135 to 136 | Cc1nc(-c2ccc3c(c2)CCCC3)c(CCC(=O)O)o1 |
| 186 to 190 | COC(=O)C1Cc2ccccc2N1c1ncnc2cc(OC)c(OC)cc12 (stereo not given) |
| 128 | Cc1ccc(NC(=O)Oc2ccc3c(c2)NCCC3)cc1 |
| 64 to 66 | O=C1c2ccccc2S(=O)(=O)N1CCCCCCOc1ccccc1 |
| > 260 | O=C1COCC2=C1C(c1ccc(F)c(Br)c1)C1=C(CNC1=O)N2 (stereo not given) |
| 58 to 59 | N#CCCCCCC(=NO)c1ccc(Cl)cc1 |

| melting point [°C] | SMILES |
| --- | --- |
| 192 to 195 | Cc1nc(Oc2ccc(Cl)cc2)c2ccccc2c1CC(=O)O |
| 70 to 72 | CCOC(=O)c1cnn(-c2ccc(Cl)cc2C(F)(F)F)c1C#N |
| 208 to 209 | CCOC(=O)Cn1c(=O)n(S(=O)(=O)c2ccc(Cl)cc2)c(=O)c2ccccc21 |
| 150 to 152 | Cc1ccc2c(C=O)c3ccccc3c(C=O)c2c1 |
| 209 to 211 | O=C(CN1CCC(Cc2ccc(F)cc2)CC1)Nc1ccc2c(c1)OCC(=O)N2 |
| 190 | COn1c(Br)c(Br)c(C#N)c1-c1ccc(Cl)cc1 |
| 201 to 203 | COc1cc(F)ccc1C(=O)NC(C)c1nc(-c2ccncn2)cc(=O)n1C (racemic) |
| 69 to 70 | CC(CNc1ccc(Cl)cc1[N+](=O)[O-])SC#N (stereo not given) |
| 327 to 331 | N#Cc1c(Cl)c([N+](=O)[O-])cc2[nH]c(=O)c(=O)[nH]c12 |
| 121 to 122 | CCCC(C)(C)C(O)C(c1cccc(Cl)c1)n1cnc(C)c1 (stereo not given) |
| 287 to 290 | O=C(O)c1ccc(/C=C/c2cnc3ccccc3c2)cc1 |
| 97 to 98 | CCCCn1nc(-c2ccccc2)c(CC(=O)O)c1-c1ccccc1 |
| 177 to 178 | Cc1oc(-c2ccccc2)nc1COc1ccc2cc(CCc3nnn[nH]3)oc2c1 |
| 137 to 138 | C#CCc1c(C)nc2c(OCc3ccccc3CO)cccn12 |
| 350 to 370 | Cc1c(-c2cccc(C#N)c2F)sc2nc(N)[nH]c(=O)c12 |
| 198 to 200 | CCc1nc2c(N)nc3ccccc3c2n1CCOCCNC(=O)NC1CCCCC1 |
| 124 to 125 | N#Cc1cc(=O)c2ccc(OCCCCl)cc2o1 |
| 340 | O=c1ccn(-c2c(O)c3ccc(Cl)cc3[nH]c2=O)cc1 |
